Reference: patent US20230015691A1, “PROPHYLACTIC OR THERAPEUTIC AGENT FOR NON-ALCOHOLIC STEATOHEPATITIS IN HUMANS” (MITSUBISHI TANABE PHARMA CORPORATION, priority 2019, published 2023)

Columns and labels:
Assay type in all cases: in vivo, human
[1] = Body weight change in NASH patients (clinical trial, 72 weeks); settings: 10 mg once daily; for Change from baseline/Weight, Mean (SD): NASH patients
Protocol: (§1) [Test Protocol] • Number of cases to be analyzed: 47 cases (placebo administration group: 23 cases; MT-3995 administration group: 24 cases) • The subjects were selected according to the following criteria.
Kleiner fibrosis classification: Stage 2 or Stage 3
(§2) • Pre-observation period (number of weeks): 10 weeks • Administration period (number of weeks): 72 weeks • Post-observation period (number of weeks): 8 weeks • Dosage and administration: MT-3995 administration group=once daily, 10 mg; placebo group=once-daily administration
Table 2 and FIG. 1 show the average amount of change in the body weight after the assignment, in the placebo group and the MT-3995 group. The body weight was measured at the time of the visit.

[2] = system: serum hyaluronic acid (HA); assay: Change in serum hyaluronic acid level (Chemilumi Hyaluronic Acid); settings: for Change from baseline/Hyaluronic Acid, LS Mean: serum, NASH patients, 10 mg once daily
Protocol: as §1, §2
Table 3 and FIG. 2 show the average amount of change in the serum hyaluronic acid level after the assignment. For measurement of the serum hyaluronic acid level, serum was prepared from blood collected from each patient on the day of the visit, according to a conventional method. The prepared serum was subjected to a test. For the measurement, Chemilumi Hyaluronic Acid (Siemens Healthcare Diagnostics K. K.) was used.

[3] = system: serum procollagen III N-Terminal Propeptide (PIIINP); assay: Change in serum PIIINP level (Chemilumi PIIIP); settings: for Change from baseline/PIIINP, Mean / Change from baseline/PIIINP, LS Mean (95% CI): serum; for Change from baseline/PIIINP, LS Mean (95% CI): all NASH patients
Protocol: as §1, §2
(§3) Table 4-1 and FIG. 3-1 show the average amount of change in the serum procollagen III N-Terminal Propeptide (PIIINP) level after the assignment. For measurement of the serum PIIINP level, serum was prepared from blood collected from each patient, according to a conventional method. The prepared serum was subjected to a test. For the measurement, Chemilumi PIIIP (Siemens Healthcare Diagnostics K. K.) was used.
A stratified analysis was carried out for the subjects based on the presence or absence of complication with diabetes. DM represents the “group of patients complicated with diabetes”. A higher effect was found in the group of patients complicated with diabetes.
Further, a stratified analysis was carried out for the subjects based on the presence or absence of complication with hypertension. HP represents the “group of patients complicated with hypertension”. A higher effect was found in the group of patients complicated with hypertension.
Further, an analysis was carried out after dividing the subjects into patients with a BMI of not less than 30 and patients with a BMI of less than 30. In the figure, “<30” represents the group of patients with a BMI of less than 30, and “≥30” represents the group of patients with a BMI of not less than 30. A higher effect was found in the group of patients with a BMI of not less than 30.

serum TIMP-1 = assay: Change in serum TIMP-1 level (ADVIA Centaur TIMP-1 assay); settings: for Change from baseline/TIMP-1, LS Mean: serum, NASH patients, 10 mg once daily
Protocol: as §1, §2
as §3, with “5” for “4-1”, “4” for “3-1”, “TIMP-1” for “procollagen III N-Terminal Propeptide (PIIINP)”, “TIMP-1” for “PIIINP”, “ADVIA Centaur (registered trademark) TIMP-1 assay” for “Chemilumi PIIIP”

liver stiffness = assay: Change in liver stiffness (Shear Wave Elastography); settings: for Change from baseline/Liver stiffness (Shear Wave Elastography), Mean (SD): NASH patients, 10 mg once daily
Protocol: as §1, §2
The liver stiffness after the assignment was measured using Shear Wave Elastography or Fibro scan. Table 7 and FIG. 6 show the average amount of change in the liver stiffness according to Shear Wave Elastography. Table 8 and FIG. 7 show the average amount of change in the liver stiffness according to Fibro scan.

[4] = throughout the treatment period

**Q.** Which “Rate of body weight reduction versus placebo group” value ([1]; 72 weeks) does the source give for `CC1(C)Oc2cc(NS(C)(=O)=O)ccc2N(c2ccc(F)cc2)C1=O` [MT-3995] here?
**A.** higher in the MT-3995 administration group than in the placebo group

**Q.** What about the “Change from baseline/Weight, Mean (SD)” value ([1]; Week 12) of the same compound?
**A.** −1.39 (1.55) kg

**Q.** And the “Change from baseline/Weight, Mean (SD)” value ([1]; Week 24)?
**A.** −1.73 (2.09) kg

**Q.** What about the “Change from baseline/Weight, Mean (SD)” value ([1]; Week 36) of the same compound?
**A.** −1.88 (2.99) kg

**Q.** And the “Change from baseline/Weight, Mean (SD)” value ([1]; Week 48)?
**A.** −2.15 (3.23) kg

**Q.** What about the “Change from baseline/Weight, Mean (SD)” value ([1]; Week 60) of the same compound?
**A.** −2.23 (3.25) kg

**Q.** What about the “Change from baseline/Weight, Mean (SD)” value ([1]; Week 72) of the same compound?
**A.** −2.21 (3.10) kg

**Q.** And the Body weight change ([1]; from the beginning of the administration)?
**A.** A decrease in the body weight was found

**Q.** And the “Serum hyaluronic acid level versus placebo group” value ([2]; Weeks 24, 48, and 72 after the beginning of the administration)?
**A.** significantly lower than the level in the placebo group

**Q.** And the “Change from baseline/Hyaluronic Acid, LS Mean” value ([2]; Week 12)?
**A.** -31.87 ng/mL

**Q.** And the “Change from baseline/Hyaluronic Acid, LS Mean” value ([2]; Week 24)?
**A.** -39.02 ng/mL

**Q.** And the “Change from baseline/Hyaluronic Acid, LS Mean” value ([2]; Week 48)?
**A.** -47.23 ng/mL

**Q.** What about the “Change from baseline/Hyaluronic Acid, LS Mean” value ([2]; Week 72) of the same compound?
**A.** -32.02 ng/mL

**Q.** What about the “Serum hyaluronic acid level versus beginning of the administration” value [2, 4] of the same compound?
**A.** lower than the level observed at the beginning of the administration

**Q.** And the “Serum PIIINP level versus placebo group” value ([3]; Weeks 12, 24, and 48 after the beginning of the administration)?
**A.** significantly lower than the level in the placebo group

**Q.** What about the “Change from baseline/PIIINP, Mean” value ([3]; DM (patients complicated with diabetes), 10 mg once daily, Week 12) of the same compound?
**A.** -2.45 ng/mL

**Q.** What about the “Change from baseline/PIIINP, Mean” value ([3]; DM (patients complicated with diabetes), 10 mg once daily, Week 24) of the same compound?
**A.** -2.47 ng/mL

**Q.** What about the “Change from baseline/PIIINP, Mean” value ([3]; DM (patients complicated with diabetes), 10 mg once daily, Week 48) of the same compound?
**A.** -4.92 ng/mL

**Q.** What about the “Change from baseline/PIIINP, Mean” value ([3]; DM (patients complicated with diabetes), 10 mg once daily, Week 72) of the same compound?
**A.** -5.00 ng/mL

**Q.** What about the “Change from baseline/PIIINP, Mean” value ([3]; HP (patients complicated with hypertension), 10 mg once daily, Week 12) of the same compound?
**A.** -2.75 ng/mL

**Q.** And the “Change from baseline/PIIINP, Mean” value ([3]; HP (patients complicated with hypertension), 10 mg once daily, Week 24)?
**A.** -3.64 ng/mL

**Q.** And the “Change from baseline/PIIINP, Mean” value ([3]; HP (patients complicated with hypertension), 10 mg once daily, Week 48)?
**A.** -5.26 ng/mL

**Q.** And the “Change from baseline/PIIINP, Mean” value ([3]; HP (patients complicated with hypertension), 10 mg once daily, Week 72)?
**A.** -4.98 ng/mL

**Q.** What about the “Change from baseline/PIIINP, LS Mean (95% CI)” value ([3]; 10 mg once daily, Week 12) of the same compound?
**A.** −2.192 (−3.874, −0.510) ng/mL

**Q.** And the “Change from baseline/PIIINP, LS Mean (95% CI)” value ([3]; 10 mg once daily, Week 24)?
**A.** −3.124 (−5.605, −0.643) ng/mL

**Q.** What about the “Change from baseline/PIIINP, LS Mean (95% CI)” value ([3]; 10 mg once daily, Week 48) of the same compound?
**A.** −3.987 (−5.756, −2.218) ng/mL

**Q.** And the “Change from baseline/PIIINP, LS Mean (95% CI)” value ([3]; 10 mg once daily, Week 72)?
**A.** −3.930 (−5.714, −2.146) ng/mL

**Q.** And the “Change from baseline/PIIINP, Mean” value ([3]; non-DM patients, 10 mg once daily, Week 12)?
**A.** -2.34 ng/mL

**Q.** And the “Change from baseline/PIIINP, Mean” value ([3]; non-DM patients, 10 mg once daily, Week 24)?
**A.** -4.19 ng/mL

**Q.** And the “Change from baseline/PIIINP, Mean” value ([3]; non-DM patients, 10 mg once daily, Week 48)?
**A.** -3.14 ng/mL

**Q.** And the “Change from baseline/PIIINP, Mean” value ([3]; non-DM patients, 10 mg once daily, Week 72)?
**A.** -2.89 ng/mL

**Q.** And the “Change from baseline/PIIINP, Mean” value ([3]; non-HP patients, 10 mg once daily, Week 12)?
**A.** -1.69 ng/mL

**Q.** And the “Change from baseline/PIIINP, Mean” value ([3]; non-HP patients, 10 mg once daily, Week 24)?
**A.** -2.71 ng/mL

**Q.** What about the “Change from baseline/PIIINP, Mean” value ([3]; non-HP patients, 10 mg once daily, Week 48) of the same compound?
**A.** -1.89 ng/mL

**Q.** And the “Change from baseline/PIIINP, Mean” value ([3]; non-HP patients, 10 mg once daily, Week 72)?
**A.** -2.13 ng/mL

**Q.** What about the “Change from baseline/PIIINP, Mean” value ([3]; patients with BMI < 30, 10 mg once daily, Week 12) of the same compound?
**A.** -2.33 ng/mL

**Q.** What about the “Change from baseline/PIIINP, Mean” value ([3]; patients with BMI < 30, 10 mg once daily, Week 24) of the same compound?
**A.** -3.86 ng/mL

**Q.** And the “Change from baseline/PIIINP, Mean” value ([3]; patients with BMI < 30, 10 mg once daily, Week 48)?
**A.** -2.58 ng/mL

**Q.** And the “Change from baseline/PIIINP, Mean” value ([3]; patients with BMI < 30, 10 mg once daily, Week 72)?
**A.** -2.40 ng/mL

**Q.** And the “Change from baseline/PIIINP, Mean” value ([3]; patients with BMI ≥ 30, 10 mg once daily, Week 12)?
**A.** -2.46 ng/mL

**Q.** What about the “Change from baseline/PIIINP, Mean” value ([3]; patients with BMI ≥ 30, 10 mg once daily, Week 24) of the same compound?
**A.** -2.79 ng/mL

**Q.** And the “Change from baseline/PIIINP, Mean” value ([3]; patients with BMI ≥ 30, 10 mg once daily, Week 48)?
**A.** -5.24 ng/mL

**Q.** What about the “Change from baseline/PIIINP, Mean” value ([3]; patients with BMI ≥ 30, 10 mg once daily, Week 72) of the same compound?
**A.** -5.24 ng/mL

**Q.** What about the “Serum PIIINP value versus beginning of the administration” value [3, 4] of the same compound?
**A.** lower than the value observed at the beginning of the administration

**Q.** And the “Serum TIMP-1 values versus beginning of the administration” value (serum TIMP-1; from Week 24 after the beginning of the treatment)?
**A.** lower than the value observed at the beginning of the administration

**Q.** What about the “Change from baseline/TIMP-1, LS Mean” value (serum TIMP-1; Week 12) of the same compound?
**A.** 2.4 ng/mL

**Q.** And the “Change from baseline/TIMP-1, LS Mean” value (serum TIMP-1; Week 24)?
**A.** -7.2 ng/mL

**Q.** And the “Change from baseline/TIMP-1, LS Mean” value (serum TIMP-1; Week 48)?
**A.** -22.4 ng/mL

**Q.** And the “Change from baseline/TIMP-1, LS Mean” value (serum TIMP-1; Week 72)?
**A.** -25.8 ng/mL

**Q.** And the “Serum TIMP-1 values versus placebo group” value (serum TIMP-1; throughout the period of the clinical trial)?
**A.** lower than the values in the Placebo group

**Q.** What about the “Change from baseline/Liver stiffness (Shear Wave Elastography), Mean (SD)” value (“Change from baseline/Liver stiffness … (SD)” below) (liver stiffness; Week 12) of the same compound?
**A.** −4.57 (2.48) kPa

**Q.** What about the “Change from baseline/Liver stiffness … (SD)” value (liver stiffness; Week 24) of the same compound?
**A.** −5.63 (3.23) kPa

**Q.** What about the “Change from baseline/Liver stiffness … (SD)” value (liver stiffness; Week 48) of the same compound?
**A.** −4.90 (4.38) kPa

**Q.** And the “Change from baseline/Liver stiffness … (SD)” value (liver stiffness; Week 72)?
**A.** −6.00 (5.23) kPa

**Q.** What about the “Liver stiffness versus beginning of the administration” value (liver stiffness; Shear Wave Elastography, throughout the treatment period) of the same compound?
**A.** lower than the value observed at the beginning of the administration
